Results reported in patent publication US20240382629A1, “HETEROBIVALENT AND HOMOBIVALENT AGENTS TARGETING FIBROBLAST ACTIVATION PROTEIN ALPHA AND/OR PROSTATE-SPECIFIC MEMBRANE ANTIGEN” (The Johns Hopkins University, priority 2021, published 2024).
Where “and” joins values, the source holds several entries; their conditions need not be identical. Identical values can stand only once.

Test: Biodistribution of [^18F]JHU1221785 with cold FAPI-04 blocker
Format: in vivo, mouse
Settings: for % ID/g Bladder / % ID/g Blood / % ID/g Brain / % ID/g Fat / % ID/g Heart / % ID/g Kidney / % ID/g Large intestine / % ID/g Lung / % ID/g Muscle / % ID/g Pancreas / % ID/g Salivary gland / % ID/g Small intestine / % ID/g Spleen / % ID/g Stomach / % ID/g Tumor: single mouse
[1] = + Blocker Cold FAPI-04 (10 nmole), 60 min

N#C[C@@H]1CCCN1C(=O)CNC(=O)c1ccnc2ccc(OCCCNC(=O)[C@@H](CC(=O)O)NC(=O)[C@@H](CC(=O)O)NC(=O)c3ccc([18F])nc3)cc12 [[^18F]JHU1221785]
% ID/g Mean Bladder (30 min): 2.81 % ID/g
% ID/g Bladder (30 min): 0.93 % ID/g and 4.69 % ID/g
% ID/g Mean Bladder (60 min): 0.84 % ID/g
% ID/g Bladder (60 min): 0.76 % ID/g and 0.92 % ID/g
% ID/g Mean Bladder [1]: 0.45 % ID/g
% ID/g Bladder [1]: 0.23 % ID/g and 0.67 % ID/g
% ID/g Mean Blood (30 min): 4.94 % ID/g
% ID/g Blood (30 min): 5.98 % ID/g and 3.90 % ID/g
% ID/g Mean Blood (60 min): 3.57 % ID/g
% ID/g Blood (60 min): 2.56 % ID/g and 4.57 % ID/g
% ID/g Mean Blood [1]: 4.68 % ID/g
% ID/g Blood [1]: 0.11 % ID/g and 9.26 % ID/g
% ID/g Mean Brain (30 min): 0.14 % ID/g
% ID/g Brain (30 min): 0.14 % ID/g and 0.15 % ID/g
% ID/g Mean Brain (60 min): 0.10 % ID/g
% ID/g Brain (60 min): 0.09 % ID/g and 0.12 % ID/g
% ID/g Mean Brain [1]: 0.03 % ID/g
% ID/g Brain [1]: 0.02 % ID/g and 0.04 % ID/g
% ID/g Mean Fat (30 min): 0.20 % ID/g
% ID/g Fat (30 min): 0.21 % ID/g and 0.19 % ID/g
% ID/g Mean Fat (60 min): 0.22 % ID/g
% ID/g Fat (60 min): 0.22 % ID/g and 0.21 % ID/g
% ID/g Mean Fat [1]: 0.12 % ID/g
% ID/g Fat [1]: 0.03 % ID/g and 0.21 % ID/g
% ID/g Mean Femur (30 min): 2.61 % ID/g
% ID/g Mean Femur (60 min): 2.07 % ID/g
% ID/g Mean Femur [1]: 1.51 % ID/g
% ID/g Mean Heart (30 min): 2.26 % ID/g
% ID/g Heart (30 min): 2.51 % ID/g and 2.01 % ID/g
% ID/g Mean Heart (60 min): 1.56 % ID/g
% ID/g Heart (60 min): 1.38 % ID/g and 1.73 % ID/g
% ID/g Mean Heart [1]: 0.07 % ID/g
% ID/g Heart [1]: 0.06 % ID/g and 0.07 % ID/g
% ID/g Mean Kidney (30 min): 2.47 % ID/g
% ID/g Kidney (30 min): 1.60 % ID/g and 3.33 % ID/g
% ID/g Mean Kidney (60 min): 0.91 % ID/g
% ID/g Kidney (60 min): 0.79 % ID/g and 1.04 % ID/g
% ID/g Mean Kidney [1]: 0.46 % ID/g
% ID/g Kidney [1]: 0.41 % ID/g and 0.51 % ID/g
% ID/g Mean Large intestine (30 min): 0.72 % ID/g
% ID/g Large intestine (30 min): 0.58 % ID/g and 0.86 % ID/g
% ID/g Mean Large intestine (60 min): 0.69 % ID/g
% ID/g Large intestine (60 min): 0.61 % ID/g and 0.78 % ID/g
% ID/g Mean Large intestine [1]: 0.20 % ID/g
% ID/g Large intestine [1]: 0.08 % ID/g and 0.33 % ID/g
% ID/g Mean Liver (30 min): 7.32 % ID/g
% ID/g Mean Liver (60 min): 7.84 % ID/g
% ID/g Mean Liver [1]: 9.89 % ID/g
% ID/g Mean Lung (30 min): 2.65 % ID/g
% ID/g Lung (30 min): 2.77 % ID/g and 2.53 % ID/g
% ID/g Mean Lung (60 min): 2.18 % ID/g
% ID/g Lung (60 min): 1.70 % ID/g and 2.65 % ID/g
% ID/g Mean Lung [1]: 0.17 % ID/g
% ID/g Lung [1]: 0.13 % ID/g and 0.20 % ID/g
% ID/g Mean Muscle (30 min): 0.96 % ID/g
% ID/g Muscle (30 min): 0.81 % ID/g and 1.12 % ID/g
% ID/g Mean Muscle (60 min): 0.98 % ID/g
% ID/g Muscle (60 min): 1.06 % ID/g and 0.89 % ID/g
% ID/g Mean Muscle [1]: 0.06 % ID/g
% ID/g Muscle [1]: 0.04 % ID/g and 0.07 % ID/g
% ID/g Mean Pancreas (30 min): 2.31 % ID/g
% ID/g Pancreas (30 min): 1.92 % ID/g and 2.71 % ID/g
% ID/g Mean Pancreas (60 min): 2.07 % ID/g
% ID/g Pancreas (60 min): 1.96 % ID/g and 2.17 % ID/g
% ID/g Mean Pancreas [1]: 0.13 % ID/g
% ID/g Pancreas [1]: 0.05 % ID/g and 0.22 % ID/g
% ID/g Mean Salivary gland (30 min): 2.93 % ID/g
% ID/g Salivary gland (30 min): 2.81 % ID/g and 3.05 % ID/g
% ID/g Mean Salivary gland (60 min): 3.45 % ID/g
% ID/g Salivary gland (60 min): 2.17 % ID/g and 4.73 % ID/g
% ID/g Mean Salivary gland [1]: 0.05 % ID/g
% ID/g Salivary gland [1]: 0.04 % ID/g and 0.06 % ID/g
% ID/g Mean Small intestine (30 min): 2.49 % ID/g
% ID/g Small intestine (30 min): 2.60 % ID/g and 2.38 % ID/g
% ID/g Mean Small intestine (60 min): 1.83 % ID/g
% ID/g Small intestine (60 min): 1.65 % ID/g and 2.01 % ID/g
% ID/g Mean Small intestine [1]: 3.54 % ID/g
% ID/g Small intestine [1]: 0.88 % ID/g and 6.19 % ID/g
% ID/g Mean Spleen (30 min): 1.00 % ID/g
% ID/g Spleen (30 min): 1.03 % ID/g and 0.97 % ID/g
% ID/g Mean Spleen (60 min): 0.93 % ID/g
% ID/g Spleen (60 min): 0.78 % ID/g and 1.09 % ID/g
% ID/g Mean Spleen [1]: 0.16 % ID/g
% ID/g Spleen [1]: 0.08 % ID/g and 0.25 % ID/g
% ID/g Mean Stomach (30 min): 0.82 % ID/g
% ID/g Stomach (30 min): 0.72 % ID/g and 0.92 % ID/g
% ID/g Mean Stomach (60 min): 0.71 % ID/g
% ID/g Stomach (60 min): 0.60 % ID/g and 0.81 % ID/g
% ID/g Mean Stomach [1]: 0.16 % ID/g
% ID/g Stomach [1]: 0.09 % ID/g and 0.23 % ID/g
% ID/g Mean Tumor (30 min): 1.24 % ID/g
% ID/g Tumor (30 min): 1.14 % ID/g and 1.34 % ID/g
% ID/g Mean Tumor (60 min): 2.23 % ID/g
% ID/g Tumor (60 min): 2.59 % ID/g and 1.47 % ID/g
% ID/g Mean Tumor [1]: 0.10 % ID/g
% ID/g Tumor [1]: 0.08 % ID/g and 0.11 % ID/g
